From patent US4996219A, “Imidazolidine derivatives as immunosuppressives” (Boehringer Mannheim GmbH, priority 1988, dated 1991)
Values after ≈ are worked out from the molar mass of the structure shown. Values joined by “and” are separate entries in the source; they are usually repeats but may differ in a detail not shown here. Identical values can stand only once.

Tests used:
human B lymphocytes = assay: B-cell growth factor dependent proliferation of human B lymphocytes (BCGF); format: cell-based; conditions: BCGF stimulated, 140 h, 3H thymidine incorporation, Imexon and Ex. 1: mean ± standard deviation of n experiments, others: single tests No. 1-3; for IC50: Homo sapiens, Lymphocyte
Description: (d) B-cell growth factor dependent proliferation of human B lymphocytes (BCGF). The macrophage/monocytes are removed from the mononuclear cell fraction (see above) by adhesion to plastic petri dishes. T lymphocytes are separated by rosetting with neuraminidase-treated sheep erythrocytes. The enriched human B-lymphocyte population so obtained is adjusted to 3×10^5 /ml. 160 /μl of this suspension together with 10 /μl of BCGF (B cell growth factor) and 20 /μl of the substance dilution to be tested are incubated for a total of 140 h. 16 h before the end of incubation, ^3 H thymidine is added and analysis is carried out as already described. […] For the upper two compounds the means plus standard deviations from n experiments are shown.

Mice splenocytes = assay: Concanavalin-A induced lymphocyte proliferation (LPT); format: cell-based
Procedure: (a) Concanavalin-A induced lymphocyte proliferation (LPT)
Mice splenocytes are adjusted in RPMI 1640 medium (with conventional additions of streptomycin, penicillin, L-glutamine and 10% fetal calf serum) to a cell density of 2×10^6 viable cells per ml. 200 μl of this cell suspension are mixed with 20 μl of an 11-fold concentrated solution of the substance to be tested. 0,5 /μg of Concanavalin A in 10 μl of phosphate buffered saline solution (PBS) are added as mitogenic stimulus to each culture. 5 hours before the end of the 48 h incubation period, the individual cultures receive 20 /μl of a 3H-thymidine solution and the proliferation of the cells is determined by means of incorporated radioactivity.
(§1) For the upper two compounds the means plus standard deviations from n experiments are shown.

human T-lymphocytes = assay: Interleukin-2 dependent proliferation of human T-lymphocytes (IL-2); format: cell-based; conditions: IL-2 stimulated, 48 h, 3H thymidine incorporation, Imexon and Ex. 1: mean ± standard deviation of n experiments, others: single tests No. 1-3; for IC50: Homo sapiens, T-lymphocyte
Procedure: (c) Interleukin-2 dependent proliferation of human T-lymphocytes (IL-2)
The mononuclear cell fraction is separated from heparinized human whole blood by means of a Ficoll gradient. After washing twice, the cell number is adjusted to 1×10^6 ml and incubation is carried out with 3 /μg/ml of Concanavalin A for 3 days. After washing twice, the cell number is set to 5×10^5 cells/ml. 160 /μl of this cell suspension are incubated with 20 /μl IL-2 and 20 /μl of a dilution of the test substance in microtitration plates for a total of 48 h. 4 hours before the end of incubation, ^3 H thymidine is added. The proliferation of the cultures is determined by means of the incorporated radioactivity.
as §1

[1] = test system: Meth A fibrosaccoma cell line; assay: Tumor-growth Inhibition Test (TGI); format: cell-based, mice; conditions: 48 h, 3H thymidine incorporation, Imexon and Ex. 1: mean ± standard deviation of n experiments, others: single tests No. 1-3; for IC50: Mus musculus, Meth-A
Procedure: (b) Tumor-growth Inhibition Test
A Meth A fibrosaccoma cell line is passaged weekly as ascites in mice. After the ascites is punctured, the cells are washed and adjusted to a cell density of 5×10^4 vital cells/ml in the aforementioned medium. 200 /μl of this suspension are pipetted into the cavities of a microtitration plate and solution of the substances to be tested are added as above. 3 hours before the end of the 48 h incubation period ^3 H thymidine is added. The proliferation of the individual cultures is determined by the incorporated radioactive thymidine.
as §1

[2] = Concanavalin A stimulated, 48 h, 3H-thymidine incorporation; Imexon and Ex. 1: mean ± standard deviation of n experiments, others: single tests No. 1-3
[3] = Mus musculus, Splenocyte, Concanavalin A stimulated, 48 h, 3H-thymidine incorporation; Imexon and Ex. 1: mean ± standard deviation of n experiments, others: single tests No. 1-3

Compound	IC50 (human B lymphocytes)	IC50 (Mice splenocytes; Mus musculus, Splenocyte, 48 h, Concanavalin A stimulated, 3H-thymidine incorporation, Imexon and Ex. 1: mean ± standard deviation of n experiments, others: single tests No. 1-3)	IC50 (human T-lymphocytes)	IC50 [1]	IC50 LPT (Mice splenocytes; [2])	IC50 (Mice splenocytes; [3])	IC50 TGI [1]	IC50 BCGF (human B lymphocytes)	IC50 IL 2 (human T-lymphocytes)
C=C1NC(=O)NC1=N [Ex. 1, 4-Imino-5-methyleneimidazolidin-2-one]	1.9 µg/mL (≈ 17.1 µM)	3.9 µg/mL (≈ 35.1 µM)	2.6 µg/mL (≈ 23.4 µM)	> 10.3 µg/mL					
CC=C1NC(=O)NC1=N [Ex. 2, 4-imino-5-ethylideneimidazolidin2-one]			> 10 µg/mL	22.6 µg/mL (≈ 181 µM)	11,1 /μg/ml	12 µg/mL (≈ 95.9 µM)	> 30 µg⁻¹ mL⁻¹		
CC(C)=C1NC(=O)NC1=N [Ex. 3, 4-Imino-5-isopropylideneimidazolidin-2-one]					20,7 /μg/ml and > 10 /μg/ml				
C=C1NC(=O)N(Cc2ccccc2)C1=N [Ex. 4, 3-Benzyl-4-imino-5-methyleneimidazolidin-2-one]	< 3 µg/mL			2.8 µg/mL (≈ 13.9 µM)				1,6 /μg/ml	
C=C1NC(=O)N(C)C1=N [Ex. BV11, 3-methyl-4-imino-5-methyleneimidazolidin-2-one]			≤ 3 µg/mL	4.2 µg/mL (≈ 33.6 µM)			2,3 /μg/ml		
C=C1NC(=O)N(CCC)C1=N [Ex. BV12, 3-n-propyl-4-imino-5-methyleneimidazolidin-2-one]	3.2 µg/mL (≈ 20.9 µM)		5.1 µg/mL (≈ 33.3 µM)	7.5 µg/mL (≈ 49 µM)				2,6 /μg/ml	4,6 /μg/ml
C=C1NC(=O)N(C2CCCCC2)C1=N [Ex. BV14, 3-cyclohexyl-4-imino-5-methyleneimidazolidin-2-one]	< 3 µg/mL								
C=C1NC(=O)N(Cc2ccncc2)C1=N [Ex. BV16, 3-(4-pyridylmethyl)-4-imino-5-methyleneimidazolidin2-one]			3.5 µg/mL (≈ 17.3 µM)	3.9 µg/mL (≈ 19.3 µM)			5,1 /μg/ml and 5,5 /μg/ml		4,8 /μg/ml
C=C1NC(=O)N(c2ccccc2)C1=N [Ex. BV17, 3-phenyl-4-imino-5-methyleneimidazolidin-2-one]				< 3 µg/mL			2,1 /μg/ml and 3,5 /μg/ml		
N=C1NC(=O)N2CC12 (centres unmarked) [Imexon, 4-imino-1,3-diazabicyclo[3.1.0]hexan-2-one, reference compound]	0.9 µg/mL (≈ 8.1 µM)		5.1 µg/mL (≈ 45.9 µM)	11.3 µg/mL (≈ 102 µM)		6.3 µg/mL (≈ 56.7 µM)			
